Test results from ChEMBL document CHEMBL3885861, “Open TG-GATES”.

Organism: Rattus norvegicus
Assay: Open TG-GATES - Regimen: Daily Repeat
Type: toxicity, organism-based, Sprague-Dawley
Parameters: regimen Daily Repeat, gender Male, age 6 weeks
Details: in vivo, sc, 0.002 mg/kg, route subcutaneous injection, dose 2 ug/Kg, dose level Low; for APTT / Bas / Eos / Fbg / Hb / Ht / Lym / MCH / MCHC / MCV / Mono / Neu / PT / Plat / RBC / Ret / WBC: tissue Blood; for KIDNEY_L / KIDNEY_R / KIDNEY_TOTAL: tissue Kidney; for LIVER: tissue Liver; for A/G / ALP / ALT / AST / BUN / CRE / Ca / Cl / DBIL / GLC / IP / K / LDH / Na / PL / RALB / TBIL / TC / TG / TP / gamma-GTP: tissue Plasma

With `CC(=O)O.N=C(N)NCCC[C@@H](NC(=O)[C@@H]1CCCN1C(=O)[C@@H]1CSSCCC(=O)N[C@@H](Cc2ccc(O)cc2)C(=O)N[C@@H](Cc2ccccc2)C(=O)N[C@@H](CCC(N)=O)C(=O)N[C@@H](CC(N)=O)C(=O)N1)C(=O)NCC(N)=O` [DESMOPRESSIN ACETATE] the TERMINAL_BW (72 h, time 3 day) was 236.2 g, the APTT (72 h, time 3 day) was 16.3 s and the Bas (72 h, time 3 day) was 0%. The Eos (72 h, time 3 day) was 1.2%, the Fbg (72 h, time 3 day) was 261.2 mg/dL and the Hb (72 h, time 3 day) was 13.3 g/dL. It also gave a Ht (72 h, time 3 day) of 41%, a Lym (72 h, time 3 day) of 72% and an MCH (72 h, time 3 day) of 21.1 pg. The MCHC (72 h, time 3 day) was 32.4%, the MCV (72 h, time 3 day) was 65.2 fL and the Mono (72 h, time 3 day) was 8.6%. For the same compound, the Neu (72 h, time 3 day) was 18.2%, the PT (72 h, time 3 day) was 12.2 s and the Plat (72 h, time 3 day) was 133.6 x10_4/uL. The RBC (72 h, time 3 day) was 630 x10_4/ul, the Ret (72 h, time 3 day) was 8.4% and the WBC (72 h, time 3 day) was 92.6 x10_2/uL. For the same compound, the KIDNEY_L (72 h, time 3 day) was 1 g, the KIDNEY_R (72 h, time 3 day) was 1 g and the KIDNEY_TOTAL (72 h, time 3 day) was 2.1 g. It also gave an LIVER (72 h, time 3 day) of 10.6 g, an A/G (72 h, time 3 day) of 2 and an ALP (72 h, time 3 day) of 1631.2 IU/L. The ALT (72 h, time 3 day) was 37 IU/L, the AST (72 h, time 3 day) was 69.2 IU/L and the BUN (72 h, time 3 day) was 15 mg/dL. It also gave a CRE (72 h, time 3 day) of 0.4 mg/dL, a Ca (72 h, time 3 day) of 11.2 mg/dL and a Cl (72 h, time 3 day) of 104.8 meq/L. For the same compound, the DBIL (72 h, time 3 day) was 0.01 mg/dL, the GLC (72 h, time 3 day) was 199 mg/dL and the IP (72 h, time 3 day) was 7.1 mg/dL. For the same compound, the K (72 h, time 3 day) was 5.1 meq/L, the LDH (72 h, time 3 day) was 180.4 IU/L and the Na (72 h, time 3 day) was 136.8 meq/L. For the same compound, the PL (72 h, time 3 day) was 146.4 mg/dL, the RALB (72 h, time 3 day) was 3.7 g/dL and the TBIL (72 h, time 3 day) was 0.034 mg/dL. For the same compound, the TC (72 h, time 3 day) was 79.2 mg/dL, the TG (72 h, time 3 day) was 95.2 mg/dL and the TP (72 h, time 3 day) was 5.6 g/dL. It also gave a gamma-GTP (72 h, time 3 day) of 1 IU/L, a TERMINAL_BW ([…], time 7 day) of 262 g and a TERMINAL_BW ([…], time 14 day) of 330.1 g. The TERMINAL_BW ([…], time 28 day) was 414.7 g, the APTT ([…], time 7 day) was 16.7 s and the Bas ([…], time 7 day) was 0%. The Eos ([…], time 7 day) was 1%, the Fbg ([…], time 7 day) was 265.2 mg/dL and the Hb ([…], time 7 day) was 13.9 g/dL. It also gave a Ht ([…], time 7 day) of 42.7%, a Lym ([…], time 7 day) of 70% and an MCH ([…], time 7 day) of 21.2 pg. It also gave an MCHC ([…], time 7 day) of 32.5%, an MCV ([…], time 7 day) of 65.2 fL and a Mono ([…], time 7 day) of 9.4%. It also gave a Neu ([…], time 7 day) of 19.8%, a PT ([…], time 7 day) of 12.1 s and a Plat ([…], time 7 day) of 106 x10_4/uL. The RBC ([…], time 7 day) was 655.8 x10_4/ul, the Ret ([…], time 7 day) was 6.9% and the WBC ([…], time 7 day) was 101 x10_2/uL. It also gave an APTT ([…], time 14 day) of 16.6 s, a Bas ([…], time 14 day) of 0% and an Eos ([…], time 14 day) of 1%. It also gave a Fbg ([…], time 14 day) of 253.8 mg/dL, a Hb ([…], time 14 day) of 14 g/dL and a Ht ([…], time 14 day) of 42.8%. For the same compound, the Lym ([…], time 14 day) was 75%, the MCH ([…], time 14 day) was 20.2 pg and the MCHC ([…], time 14 day) was 32.8%. For the same compound, the MCV ([…], time 14 day) was 61.5 fL, the Mono ([…], time 14 day) was 8.6% and the Neu ([…], time 14 day) was 15.2%. The PT ([…], time 14 day) was 12.1 s, the Plat ([…], time 14 day) was 134.8 x10_4/uL and the RBC ([…], time 14 day) was 696.6 x10_4/ul. For the same compound, the Ret ([…], time 14 day) was 5.6%, the WBC ([…], time 14 day) was 119.2 x10_2/uL and the APTT ([…], time 28 day) was 17.5 s. The Bas ([…], time 28 day) was 0%, the Eos ([…], time 28 day) was 1.2% and the Fbg ([…], time 28 day) was 251.8 mg/dL. It also gave a Hb ([…], time 28 day) of 15.1 g/dL, a Ht ([…], time 28 day) of 46% and a Lym ([…], time 28 day) of 76.2%. It also gave an MCH ([…], time 28 day) of 19.4 pg, an MCHC ([…], time 28 day) of 32.8% and an MCV ([…], time 28 day) of 59.4 fL. It also gave a Mono ([…], time 28 day) of 7.2%, a Neu ([…], time 28 day) of 15.8% and a PT ([…], time 28 day) of 12 s. It also gave a Plat ([…], time 28 day) of 117.6 x10_4/uL, an RBC ([…], time 28 day) of 774.6 x10_4/ul and a Ret ([…], time 28 day) of 4.2%. The WBC ([…], time 28 day) was 132 x10_2/uL, the KIDNEY_L ([…], time 7 day) was 1.2 g and the KIDNEY_R ([…], time 7 day) was 1.2 g. For the same compound, the KIDNEY_TOTAL ([…], time 7 day) was 2.4 g, the KIDNEY_L ([…], time 14 day) was 1.4 g and the KIDNEY_R ([…], time 14 day) was 1.4 g. For the same compound, the KIDNEY_TOTAL ([…], time 14 day) was 2.7 g, the KIDNEY_L ([…], time 28 day) was 1.5 g and the KIDNEY_R ([…], time 28 day) was 1.5 g. The KIDNEY_TOTAL ([…], time 28 day) was 3 g, the LIVER ([…], time 7 day) was 11.7 g and the LIVER ([…], time 14 day) was 14 g. It also gave an LIVER ([…], time 28 day) of 16.3 g, an A/G ([…], time 7 day) of 1.9 and an ALP ([…], time 7 day) of 1102.8 IU/L. The ALT ([…], time 7 day) was 32.8 IU/L, the AST ([…], time 7 day) was 69.6 IU/L and the BUN ([…], time 7 day) was 17.8 mg/dL. It also gave a CRE ([…], time 7 day) of 0.4 mg/dL, a Ca ([…], time 7 day) of 13.6 mg/dL and a Cl ([…], time 7 day) of 99.4 meq/L. The DBIL ([…], time 7 day) was 0.012 mg/dL, the GLC ([…], time 7 day) was 198.6 mg/dL and the IP ([…], time 7 day) was 8.2 mg/dL. It also gave a K ([…], time 7 day) of 4.8 meq/L, an LDH ([…], time 7 day) of 155.6 IU/L and a Na ([…], time 7 day) of 130.6 meq/L. It also gave a PL ([…], time 7 day) of 132.2 mg/dL, an RALB ([…], time 7 day) of 3.7 g/dL and a TBIL ([…], time 7 day) of 0.044 mg/dL. The TC ([…], time 7 day) was 68.6 mg/dL, the TG ([…], time 7 day) was 99.4 mg/dL and the TP ([…], time 7 day) was 5.7 g/dL. For the same compound, the gamma-GTP ([…], time 7 day) was 1 IU/L, the A/G ([…], time 14 day) was 1.8 and the ALP ([…], time 14 day) was 1109.8 IU/L. For the same compound, the ALT ([…], time 14 day) was 33.8 IU/L, the AST ([…], time 14 day) was 70 IU/L and the BUN ([…], time 14 day) was 16.6 mg/dL. For the same compound, the CRE ([…], time 14 day) was 0.4 mg/dL, the Ca ([…], time 14 day) was 10.8 mg/dL and the Cl ([…], time 14 day) was 106.2 meq/L. It also gave a DBIL ([…], time 14 day) of 0.01 mg/dL, a GLC ([…], time 14 day) of 183.8 mg/dL and an IP ([…], time 14 day) of 6.9 mg/dL. It also gave a K ([…], time 14 day) of 5.3 meq/L, an LDH ([…], time 14 day) of 146.8 IU/L and a Na ([…], time 14 day) of 138.4 meq/L. It also gave a PL ([…], time 14 day) of 135.6 mg/dL, an RALB ([…], time 14 day) of 3.6 g/dL and a TBIL ([…], time 14 day) of 0.028 mg/dL. The TC ([…], time 14 day) was 66.6 mg/dL, the TG ([…], time 14 day) was 111.2 mg/dL and the TP ([…], time 14 day) was 5.7 g/dL. The gamma-GTP ([…], time 14 day) was 1 IU/L, the A/G ([…], time 28 day) was 1.5 and the ALP ([…], time 28 day) was 926.6 IU/L. The ALT ([…], time 28 day) was 27.8 IU/L, the AST ([…], time 28 day) was 62.6 IU/L and the BUN ([…], time 28 day) was 16.6 mg/dL. It also gave a CRE ([…], time 28 day) of 0.4 mg/dL, a Ca ([…], time 28 day) of 9.3 mg/dL and a Cl ([…], time 28 day) of 105 meq/L. The DBIL ([…], time 28 day) was 0.012 mg/dL, the GLC ([…], time 28 day) was 193 mg/dL and the IP ([…], time 28 day) was 6.4 mg/dL. For the same compound, the K ([…], time 28 day) was 4.9 meq/L, the LDH ([…], time 28 day) was 168 IU/L and the Na ([…], time 28 day) was 139.4 meq/L. The PL ([…], time 28 day) was 142 mg/dL, the RALB ([…], time 28 day) was 3.8 g/dL and the TBIL ([…], time 28 day) was 0.046 mg/dL. The TC ([…], time 28 day) was 71.8 mg/dL, the TG ([…], time 28 day) was 158.2 mg/dL and the TP ([…], time 28 day) was 6.3 g/dL. It also gave a gamma-GTP ([…], time 28 day) of 0.6 IU/L.
